Values quoted from earlier work as cited in patent US20240299293A1 (priority 2020, published 2024).

System: human coronaviruses, including CoV-229E and SARS-COV, and animal coronaviruses
Conditions: for elimination of coronaviruses: hexachlorophene, 2% glutaraldehyde, 1% povidone-iodine, benzalkonium chloride, chlorhexidine

Compound | elimination of coronaviruses | further results
benzalkonium chloride | only if 70% ethanol is present in the solution | 
CCO [ethanol] |  | reduction of viability (70% ethanol, viruses in suspension and dried on surfaces, within seconds): greater than 3 log
[H]/N=C(\N/C(=N/[H])NCCCCCCNC(=N)NC(=N)Nc1ccc(Cl)cc1)Nc1ccc(Cl)cc1 [chlorhexidine] | only if 70% ethanol is present in the solution | 
O=CCCCC=O [glutaraldehyde] | satisfactory elimination rates | 
povidone-iodine | satisfactory elimination rates | 
Oc1c(Cl)cc(Cl)c(Cl)c1Cc1c(O)c(Cl)cc(Cl)c1Cl [hexachlorophene] | satisfactory elimination rates | 
OCl [sodium hypochlorite] |  | susceptibility of coronaviruses (6% sodium hypochlorite solutions): variable
